# Experimental data as given in US20190218226A1, “PRODRUGS OF ANTICANCER AGENTS INDOTECAN AND INDIMITECAN” (Purdue Research Foundation, priority 2016, published 2019).
# Legend:
# MCF-7 = assay: NCI60 antiproliferative screen, breast MCF-7; format: cell-based, human; conditions: MCF-7, 48 h, sulforhodamine B; read-out: Cytotoxicity (GI50) breast MCF-7
# Outline: (§1)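 Human tumour cells incubated 48 h with test compound over a 0.01–100 μM range, then sulforhodamine B dye added and absorbance read. GI50 derived by interpolating percentage growth relative to control.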
# Human recombinant Top1 = target: T1, Human recombinant Top1 (Homo sapiens, UniProt P11387); assay: Top1-mediated DNA cleavage assay; format: biochemical; parameters: key to Top 1 Cleavage: 0, no inhibitory activity; +, between 20 and 50% activities; ++, between 50 and 75% activity; +++, between 75 and 95% activity; ++++, equipotent; conditions: graded relative to 1 μM camptothecin
# T1 construct: made in house
# T1 sequence (P11387 1-765): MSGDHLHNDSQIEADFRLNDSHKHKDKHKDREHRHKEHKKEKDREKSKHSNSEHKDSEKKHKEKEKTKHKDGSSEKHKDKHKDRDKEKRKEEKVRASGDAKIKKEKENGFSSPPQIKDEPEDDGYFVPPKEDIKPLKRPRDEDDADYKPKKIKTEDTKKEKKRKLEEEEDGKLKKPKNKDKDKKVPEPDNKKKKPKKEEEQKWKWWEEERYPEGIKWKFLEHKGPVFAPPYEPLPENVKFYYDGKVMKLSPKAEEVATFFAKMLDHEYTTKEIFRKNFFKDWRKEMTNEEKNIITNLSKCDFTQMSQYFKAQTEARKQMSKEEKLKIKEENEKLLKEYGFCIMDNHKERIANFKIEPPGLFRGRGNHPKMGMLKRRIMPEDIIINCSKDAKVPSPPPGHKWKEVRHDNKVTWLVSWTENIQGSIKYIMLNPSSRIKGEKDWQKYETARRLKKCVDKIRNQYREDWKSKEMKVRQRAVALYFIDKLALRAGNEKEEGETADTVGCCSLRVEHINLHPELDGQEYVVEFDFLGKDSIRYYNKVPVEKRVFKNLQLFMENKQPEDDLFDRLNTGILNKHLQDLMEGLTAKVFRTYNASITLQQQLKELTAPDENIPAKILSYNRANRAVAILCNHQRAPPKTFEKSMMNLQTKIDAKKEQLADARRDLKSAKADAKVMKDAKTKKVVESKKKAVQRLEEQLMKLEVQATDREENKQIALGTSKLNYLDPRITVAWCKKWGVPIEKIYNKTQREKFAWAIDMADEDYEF
# Outline: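 About 2 nM 3′-[32P]-labelled 117-bp DNA incubated with baculovirus-expressed recombinant Top1 at 25 °C for 20 min (Tris pH 7.5, KCl, MgCl2, EDTA, BSA) at four compound concentrations; stopped with 0.5% SDS. Denaturing 20% PAGE, phosphorimaging; cleavage scored semiquantitatively (0 to ++++) against reference compounds.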
# HCT-116 = assay: NCI60 antiproliferative screen, colon HCT-116; format: cell-based, human; conditions: HCT-116, 48 h, sulforhodamine B; read-out: Cytotoxicity (GI50) Colon HCT-116
# Outline: as §1
smiles,measurement,setting,value
"COC(=O)CCC(=O)Oc1cc2c(=O)n(CCCN3CCOCC3)c3c(c2cc1OC)C(=O)c1cc2c(cc1-3)OCO2 [Compound 17, 2-Methoxy-6-(3-morpholinopropyl)-5,12-dioxo-6,12-dihydro-5H-[1,3]dioxolo[4′,5′:5,6]indeno[1,2-c]isoquinolin-3-yl Methyl Succinate]",GI50,MCF-7,< 10 nM
same,Top 1 Cleavage,Human recombinant Top1,0
same,GI50,HCT-116,20 nM
